Activity calls are given as the source filed them.
How the values were obtained:
[1] = microbe, parasite or virus in culture; assay type: functional; details: Mycobacterium tuberculosis
BJ [2] = experiment: cells; assay type: functional, cell-based; details: Homo sapiens
BJ [3] = experiment: BJ-TERT fibroblast viability loss – cell-based, RAS-independent, luminescence, dose response (AID 1933); assay type: functional; details: Homo sapiens
[4] = DRD fibroblast viability loss – cell-based, non-viral oncogenic, luminescence, dose response (AID 1934); assay type: functional; details: Homo sapiens
[5] = target: Neurotensin receptor type 1 (Homo sapiens, UniProt P30989); assay type: functional;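 also: Image-based confirmatory dose-response assay measuring agonist activity at NTR1; NTR1-expressing U2OS osteosarcoma cells imaged for beta-arrestin GFP spot formation; agonist potency where compounds increase beta-arrestin recruitment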
BJ [6] = experiment: BJ-TERT-LT-ST fibroblast viability loss – cell-based, RAS-independent, luminescence, dose response (AID 1935); assay type: functional; details: Homo sapiens;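 also: BJ fibroblasts immortalized with TERT plus LT and ST oncogenes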
[7] = viability loss in HepG2 hepatoma cells – cell-based, ATP luminescence, cherry-pick, activator set 2, cytotoxicity control, dose response (AID 1053143); assay type: functional
[8] = target: Cyclin-dependent kinase 5/CDK5 activator 1 (Homo sapiens, UniProt Q00535); experiment: blockade of human CDK5 activity – biochemical, cherry-picked samples, set 2, dose response (AID 504545)
[9] = target: T1, Oxysterols receptor LXR-beta (Homo sapiens, UniProt P55055); assay type: functional, cell-based;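 also: agonist activity at LXR measured by a cell-based luminescence readout across a dose range, run as a counterscreen for daf-12 agonists; HEK293 cells with Gal4-LXR fusion and GAL4-driven luciferase reporter; potency for activation of Gal4-LXR reporter so compounds are agonists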
T1 sequence (P55055 whole entry): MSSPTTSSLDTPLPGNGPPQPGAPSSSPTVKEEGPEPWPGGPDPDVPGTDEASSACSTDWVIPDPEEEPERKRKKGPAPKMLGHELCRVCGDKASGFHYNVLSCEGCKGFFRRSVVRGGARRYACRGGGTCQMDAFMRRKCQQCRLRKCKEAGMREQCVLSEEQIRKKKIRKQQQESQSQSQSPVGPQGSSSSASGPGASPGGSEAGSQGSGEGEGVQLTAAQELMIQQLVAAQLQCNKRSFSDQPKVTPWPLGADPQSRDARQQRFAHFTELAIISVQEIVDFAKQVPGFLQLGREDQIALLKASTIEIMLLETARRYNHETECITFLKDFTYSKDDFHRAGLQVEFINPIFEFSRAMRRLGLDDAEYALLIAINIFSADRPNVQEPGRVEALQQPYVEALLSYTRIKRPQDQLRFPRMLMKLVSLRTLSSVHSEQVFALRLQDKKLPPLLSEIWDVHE

[10] = target: Voltage-dependent T-type calcium channel subunit alpha-1H (Homo sapiens, UniProt O95180); assay type: functional;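 also: channel activity triggered by adding a high calcium stimulation buffer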
[11] = target: G-protein coupled receptor 55 (Homo sapiens, UniProt Q9Y2T6); experiment: inhibition of LPI-stimulated GPR55 beta-arrestin translocation – imaging, U2OS, beta-arrestin-GFP, LPI agonist, primary screen (AID 2013); assay type: functional;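 also: antagonist potency measured as reduced agonist-driven arrestin aggregation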
[12] = target: NACHT, LRR and PYD domains-containing protein 3 (Homo sapiens, UniProt Q96P20); experiment: NALP3 inhibitors in yeast, dose response, luminescent (AID 488799); assay type: functional
Coagulation factor XII = target: T2, Coagulation factor XII (Homo sapiens, UniProt P00748); experiment: Factor XIIa Dose Response Confirmation from Single Well HTS. [Related pubchem assays (depositor defined):AID701]; assay type: functional
T2 sequence (P00748 whole entry): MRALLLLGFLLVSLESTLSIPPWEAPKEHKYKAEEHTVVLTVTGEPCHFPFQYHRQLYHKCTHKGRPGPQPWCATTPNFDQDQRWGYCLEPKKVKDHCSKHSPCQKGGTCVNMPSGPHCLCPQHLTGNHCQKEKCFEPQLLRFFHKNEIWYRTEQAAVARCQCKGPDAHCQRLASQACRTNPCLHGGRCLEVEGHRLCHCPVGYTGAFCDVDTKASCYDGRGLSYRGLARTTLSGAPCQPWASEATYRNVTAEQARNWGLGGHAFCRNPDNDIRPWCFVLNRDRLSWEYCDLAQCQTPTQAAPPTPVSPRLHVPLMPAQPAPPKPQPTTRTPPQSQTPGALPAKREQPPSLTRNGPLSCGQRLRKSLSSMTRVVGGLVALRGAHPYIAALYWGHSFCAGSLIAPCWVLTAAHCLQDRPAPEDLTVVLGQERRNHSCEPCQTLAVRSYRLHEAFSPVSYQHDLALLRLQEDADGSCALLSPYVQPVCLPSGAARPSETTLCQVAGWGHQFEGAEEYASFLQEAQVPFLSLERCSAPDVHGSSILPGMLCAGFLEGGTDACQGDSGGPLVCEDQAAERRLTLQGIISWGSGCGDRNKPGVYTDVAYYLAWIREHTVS

[13] = target: T3, Microphthalmia-associated transcription factor (Homo sapiens, UniProt O75030); experiment: reducers of TRPM1 reporter luminescence, concentration series – cell-based, SK-MEL-5, cherry-picked, set 3, MITF inhibitor project, dose response (AID 493073); assay type: functional;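 also: SK-MEL-5 melanoma cells with luciferase driven by the MITF target TRPM1 promoter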
T3 sequence (O75030 whole entry): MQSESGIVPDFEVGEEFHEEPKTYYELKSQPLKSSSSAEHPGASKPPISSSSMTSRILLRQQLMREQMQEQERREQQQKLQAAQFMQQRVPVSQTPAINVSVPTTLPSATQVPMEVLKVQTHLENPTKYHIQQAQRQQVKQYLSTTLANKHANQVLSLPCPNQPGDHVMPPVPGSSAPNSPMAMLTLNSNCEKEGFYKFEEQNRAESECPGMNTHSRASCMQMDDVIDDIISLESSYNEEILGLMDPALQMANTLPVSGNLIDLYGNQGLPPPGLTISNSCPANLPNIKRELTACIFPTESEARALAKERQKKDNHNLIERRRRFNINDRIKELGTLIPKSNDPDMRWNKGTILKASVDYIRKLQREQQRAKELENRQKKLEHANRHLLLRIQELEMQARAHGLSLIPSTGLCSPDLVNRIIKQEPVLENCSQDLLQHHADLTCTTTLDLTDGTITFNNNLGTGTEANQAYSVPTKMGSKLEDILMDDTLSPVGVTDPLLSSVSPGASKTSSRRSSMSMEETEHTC

[14] = THP-1 cell cytotoxicity, dose response, cytotoxicity control for non-replicating M. tuberculosis project (AID 489025); assay type: functional
[15] = reduction of Shn3 3'UTR-driven luciferase in osteoblasts – cell-based, Clone20 osteoblasts, firefly luciferase, cherry-picked, dose response (AID 624132); assay type: functional;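 also: firefly luciferase luminescence from reporter carrying the Shn3 3'UTR in osteoblasts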
cells [16] = assay type: functional
HT-1080 = experiment: HT1080 cell viability loss – fluorescence readout (AID 620); assay type: functional, cell-based; details: Homo sapiens
BJ [17] = experiment: growth inhibition of engineered Ras-driven BJ cells – cell-based, alamar blue fluorescence, cherrypicked samples, dose response (AID 2631); assay type: functional; details: Homo sapiens;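 also: confirmatory dose-response assay in RAS-dependent BJ fibroblasts engineered with TERT, LT and ST, with cytotoxicity read by fluorescence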
[18] = non-specific 3'UTR reporter inhibition in Clone20-Shn3RL – cell-based, Renilla luciferase, cherry-picked, counter-screen for Shn3 inhibitor project, dose response (AID 624133); assay type: functional
cells [19] = assay type: functional, cell-based
[20] = target: Luciferin 4-monooxygenase (Photinus pyralis, UniProt P08659); experiment: Counter Screen for Luciferase-based Assay Positives. [Related pubchem assays: 620, 618, 411 ]
[21] = HepG2 cell cytotoxicity, dose response, cytotoxicity control for non-replicating M. tuberculosis project (AID 489018); assay type: functional; details: Mycobacterium tuberculosis
Nonstructural protein 1 = Nonstructural protein 1 (Influenza A virus, UniProt Q194T2); assay type: functional, Influenza A virus (A/California/07/2009(H1N1))
[22] = loss of viability in HepG2 cells – cell-based, CellTiter-Glo, cherry-picked, cytotoxicity control for Shn3 inhibitor project, dose response (AID 624134); assay type: functional
[23] = Vero E6 cell cytotoxicity, dose response, cytotoxicity control for non-replicating M. tuberculosis project, secondary assay (AID 492998); assay type: functional, VeroE6; details: Vero C1008
A-375 = experiment: proliferation inhibition in MITF-low A375 cells – cell-based, cherry-pick samples, set 2, counter-screen for MITF modulator project, dose response (AID 540335); assay type: functional; details: Homo sapiens
cells [24] = assay type: functional, cell-based; remark: listed apart in the source
Trypanosoma cruzi = experiment: anti-trypanosomal activity in host cells – cell-based, plate reader, dry powder, set 3, dose response (AID 493197); assay type: functional
[25] = target: Alkaline phosphatase, placental type (Homo sapiens, UniProt P05187); experiment: human placental alkaline phosphatase inhibition – biochemical, luminescence, confirmation (AID 1512); assay type: functional
[26] = target: Glyceraldehyde-3-phosphate dehydrogenase (Homo sapiens, UniProt P04406)
[27] = Cytotoxicity screening for potential Inhibitors of Bacterial Capsule Biogenesis. [Related pubchem assays (depositor defined):AID488970]; assay type: functional

Sequence of NACHT, LRR and PYD domains-containing protein 3 (Q96P20 whole entry, the tested form may be a part): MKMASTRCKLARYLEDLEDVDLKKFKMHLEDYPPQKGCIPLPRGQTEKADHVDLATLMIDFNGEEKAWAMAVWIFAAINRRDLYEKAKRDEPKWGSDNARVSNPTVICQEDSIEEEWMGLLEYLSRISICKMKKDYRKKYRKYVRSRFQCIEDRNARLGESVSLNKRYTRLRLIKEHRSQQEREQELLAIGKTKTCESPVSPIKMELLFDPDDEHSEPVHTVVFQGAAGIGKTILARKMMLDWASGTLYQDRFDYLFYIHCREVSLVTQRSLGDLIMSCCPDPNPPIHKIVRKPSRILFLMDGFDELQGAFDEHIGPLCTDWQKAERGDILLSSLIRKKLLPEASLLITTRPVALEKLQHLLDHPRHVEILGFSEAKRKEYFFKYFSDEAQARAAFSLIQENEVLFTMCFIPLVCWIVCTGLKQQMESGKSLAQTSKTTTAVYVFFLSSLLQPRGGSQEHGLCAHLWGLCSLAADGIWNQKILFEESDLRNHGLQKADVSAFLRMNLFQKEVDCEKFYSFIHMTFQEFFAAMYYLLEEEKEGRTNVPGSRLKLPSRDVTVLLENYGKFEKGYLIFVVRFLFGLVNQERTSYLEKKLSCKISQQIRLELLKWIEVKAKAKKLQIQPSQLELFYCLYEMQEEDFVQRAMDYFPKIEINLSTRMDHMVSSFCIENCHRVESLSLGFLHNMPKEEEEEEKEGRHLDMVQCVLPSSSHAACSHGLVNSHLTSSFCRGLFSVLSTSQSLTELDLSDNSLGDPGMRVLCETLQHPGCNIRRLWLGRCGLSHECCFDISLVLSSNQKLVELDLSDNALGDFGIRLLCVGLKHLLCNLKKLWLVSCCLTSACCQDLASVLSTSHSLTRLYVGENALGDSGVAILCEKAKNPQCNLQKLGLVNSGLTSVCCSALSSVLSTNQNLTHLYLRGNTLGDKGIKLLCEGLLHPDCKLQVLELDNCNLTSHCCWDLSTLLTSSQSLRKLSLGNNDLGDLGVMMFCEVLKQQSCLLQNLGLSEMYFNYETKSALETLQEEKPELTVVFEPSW
Sequence of Glyceraldehyde-3-phosphate dehydrogenase (P04406 whole entry): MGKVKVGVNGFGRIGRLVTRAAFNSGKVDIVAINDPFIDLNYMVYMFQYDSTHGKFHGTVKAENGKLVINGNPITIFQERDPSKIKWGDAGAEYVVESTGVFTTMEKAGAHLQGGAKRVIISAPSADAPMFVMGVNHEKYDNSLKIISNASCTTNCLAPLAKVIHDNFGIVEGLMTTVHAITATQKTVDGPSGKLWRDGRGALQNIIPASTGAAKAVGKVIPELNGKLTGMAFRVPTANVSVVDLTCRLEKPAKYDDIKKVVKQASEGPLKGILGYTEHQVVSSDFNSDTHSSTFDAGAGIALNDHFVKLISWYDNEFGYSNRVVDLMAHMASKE
Sequence of Voltage-dependent T-type calcium channel subunit alpha-1H (O95180 whole entry): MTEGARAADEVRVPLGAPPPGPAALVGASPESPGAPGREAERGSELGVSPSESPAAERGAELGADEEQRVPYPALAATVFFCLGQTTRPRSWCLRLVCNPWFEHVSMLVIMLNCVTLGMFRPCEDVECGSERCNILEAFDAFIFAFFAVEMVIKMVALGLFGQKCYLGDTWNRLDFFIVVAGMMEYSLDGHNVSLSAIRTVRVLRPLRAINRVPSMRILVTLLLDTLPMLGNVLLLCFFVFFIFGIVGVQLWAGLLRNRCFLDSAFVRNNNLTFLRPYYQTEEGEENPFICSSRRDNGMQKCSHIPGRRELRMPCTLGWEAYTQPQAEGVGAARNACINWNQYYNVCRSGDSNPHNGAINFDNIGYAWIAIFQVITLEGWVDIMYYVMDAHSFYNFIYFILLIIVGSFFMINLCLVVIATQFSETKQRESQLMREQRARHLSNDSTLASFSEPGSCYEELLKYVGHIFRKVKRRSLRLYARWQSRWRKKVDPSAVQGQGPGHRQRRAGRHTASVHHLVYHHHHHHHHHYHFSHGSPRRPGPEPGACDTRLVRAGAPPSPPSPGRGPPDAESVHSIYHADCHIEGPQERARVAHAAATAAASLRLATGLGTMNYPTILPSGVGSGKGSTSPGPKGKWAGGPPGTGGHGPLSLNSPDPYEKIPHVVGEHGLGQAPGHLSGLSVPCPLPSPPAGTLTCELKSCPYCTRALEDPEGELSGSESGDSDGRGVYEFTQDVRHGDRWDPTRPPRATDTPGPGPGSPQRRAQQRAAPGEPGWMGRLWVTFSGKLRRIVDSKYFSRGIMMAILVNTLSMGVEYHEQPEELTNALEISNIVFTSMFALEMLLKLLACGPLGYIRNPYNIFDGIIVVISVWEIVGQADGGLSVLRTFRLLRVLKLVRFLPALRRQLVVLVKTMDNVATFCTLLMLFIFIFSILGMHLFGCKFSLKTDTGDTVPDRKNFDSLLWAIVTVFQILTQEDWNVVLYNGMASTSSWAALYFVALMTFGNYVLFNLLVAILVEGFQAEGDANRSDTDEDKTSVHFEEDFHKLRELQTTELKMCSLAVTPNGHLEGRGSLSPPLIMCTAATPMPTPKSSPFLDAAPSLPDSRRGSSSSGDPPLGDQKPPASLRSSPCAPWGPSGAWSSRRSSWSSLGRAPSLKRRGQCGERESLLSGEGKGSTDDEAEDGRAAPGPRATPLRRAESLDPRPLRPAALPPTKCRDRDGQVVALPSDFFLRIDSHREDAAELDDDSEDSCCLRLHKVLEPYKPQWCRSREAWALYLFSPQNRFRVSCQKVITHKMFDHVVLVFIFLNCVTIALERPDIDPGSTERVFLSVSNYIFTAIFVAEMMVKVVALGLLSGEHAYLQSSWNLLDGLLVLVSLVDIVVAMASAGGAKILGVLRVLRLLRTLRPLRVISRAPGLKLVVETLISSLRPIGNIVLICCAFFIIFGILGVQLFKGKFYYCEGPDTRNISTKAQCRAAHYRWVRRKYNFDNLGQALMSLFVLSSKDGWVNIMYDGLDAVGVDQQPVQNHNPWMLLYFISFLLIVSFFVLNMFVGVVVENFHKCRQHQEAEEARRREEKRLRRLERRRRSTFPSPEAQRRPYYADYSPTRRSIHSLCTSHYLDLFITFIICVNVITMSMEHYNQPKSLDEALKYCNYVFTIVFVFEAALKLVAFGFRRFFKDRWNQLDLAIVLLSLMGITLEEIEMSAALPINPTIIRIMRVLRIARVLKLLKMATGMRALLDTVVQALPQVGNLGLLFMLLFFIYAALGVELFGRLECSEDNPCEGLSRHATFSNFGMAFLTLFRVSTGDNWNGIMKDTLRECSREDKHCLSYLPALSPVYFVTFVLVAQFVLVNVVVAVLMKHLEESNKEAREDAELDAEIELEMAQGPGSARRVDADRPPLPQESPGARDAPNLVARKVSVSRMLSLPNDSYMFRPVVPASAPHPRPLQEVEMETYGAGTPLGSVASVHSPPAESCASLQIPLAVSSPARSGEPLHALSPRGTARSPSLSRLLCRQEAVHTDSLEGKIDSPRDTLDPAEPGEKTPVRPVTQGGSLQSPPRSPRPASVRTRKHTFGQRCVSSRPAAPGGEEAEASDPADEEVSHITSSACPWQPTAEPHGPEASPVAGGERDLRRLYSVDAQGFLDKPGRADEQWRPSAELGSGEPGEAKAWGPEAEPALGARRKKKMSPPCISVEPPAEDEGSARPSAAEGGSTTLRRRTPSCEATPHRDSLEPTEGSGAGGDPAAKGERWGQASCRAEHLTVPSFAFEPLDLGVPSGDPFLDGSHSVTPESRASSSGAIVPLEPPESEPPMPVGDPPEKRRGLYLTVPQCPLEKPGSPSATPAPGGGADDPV
Sequence of Cyclin-dependent kinase 5/CDK5 activator 1 (Q00535 whole entry, the tested form may be a part): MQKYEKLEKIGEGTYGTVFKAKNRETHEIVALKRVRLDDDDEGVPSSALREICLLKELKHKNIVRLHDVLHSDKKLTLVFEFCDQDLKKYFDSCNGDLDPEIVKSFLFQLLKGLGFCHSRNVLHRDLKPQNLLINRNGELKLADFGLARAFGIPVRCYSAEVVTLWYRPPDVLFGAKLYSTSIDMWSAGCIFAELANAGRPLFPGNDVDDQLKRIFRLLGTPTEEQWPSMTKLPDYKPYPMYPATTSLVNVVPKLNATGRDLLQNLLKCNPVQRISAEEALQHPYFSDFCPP
Sequence of Cyclin-dependent kinase 5/CDK5 activator 1 (Q15078 whole entry, further chain, the tested form may be a part): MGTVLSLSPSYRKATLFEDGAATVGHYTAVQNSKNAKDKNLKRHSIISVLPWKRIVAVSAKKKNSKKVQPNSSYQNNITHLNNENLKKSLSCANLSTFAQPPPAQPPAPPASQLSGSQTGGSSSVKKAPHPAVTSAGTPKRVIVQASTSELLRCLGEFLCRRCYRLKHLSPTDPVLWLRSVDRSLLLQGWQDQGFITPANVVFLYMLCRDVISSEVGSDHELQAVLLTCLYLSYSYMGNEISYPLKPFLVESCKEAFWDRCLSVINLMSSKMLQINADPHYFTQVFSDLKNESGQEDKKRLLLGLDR
Sequence of Neurotensin receptor type 1 (P30989 whole entry): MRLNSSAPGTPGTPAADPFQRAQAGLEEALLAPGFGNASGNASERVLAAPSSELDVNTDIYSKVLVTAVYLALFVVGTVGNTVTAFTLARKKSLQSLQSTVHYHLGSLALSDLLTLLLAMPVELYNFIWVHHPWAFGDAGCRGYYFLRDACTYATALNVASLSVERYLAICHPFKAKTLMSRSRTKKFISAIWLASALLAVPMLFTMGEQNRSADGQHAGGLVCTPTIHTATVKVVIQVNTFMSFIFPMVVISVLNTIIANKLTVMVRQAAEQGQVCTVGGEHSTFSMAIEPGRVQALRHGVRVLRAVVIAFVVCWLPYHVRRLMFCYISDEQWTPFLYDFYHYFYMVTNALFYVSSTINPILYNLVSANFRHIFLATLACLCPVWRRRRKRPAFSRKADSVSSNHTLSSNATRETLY
Sequence of Nonstructural protein 1 (Q194T2 whole entry): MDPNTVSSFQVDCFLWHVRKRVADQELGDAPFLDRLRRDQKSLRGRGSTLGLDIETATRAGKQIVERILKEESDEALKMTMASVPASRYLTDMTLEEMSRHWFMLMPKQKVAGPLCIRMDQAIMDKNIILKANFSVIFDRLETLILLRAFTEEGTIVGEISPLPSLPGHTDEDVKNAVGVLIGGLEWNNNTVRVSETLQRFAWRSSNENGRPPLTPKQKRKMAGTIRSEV

Q: For COc1cc(C(=O)/C=C/c2cccnc2)c([N+](=O)[O-])cc1OC, which CC50 [1] is on record?
A: 15.6 µM (active)

Q: What about the EC50 (BJ [2]) of the same compound?
A: 18.6 µM (active)

Q: What about the EC50 (BJ [3]) of the same compound?
A: 13 µM (active)

Q: What about the EC50 [4] of the same compound?
A: 9.22 µM (active)

Q: And the EC50 [5]?
A: 32.1 µM (inactive)

Q: And the EC50 (BJ [6])?
A: > 75 µM (not active)

Q: With COc1ccc(Nc2nccc(-c3cccc(N)c3)n2)cc1 as the compound, how does the AC50 [7] read?
A: 18.8 µM (active)

Q: And the AC50 [8]?
A: 80.7 µM (active)

Q: What about the EC50 [9] of the same compound?
A: > 67.5 µM (inactive)

Q: For COc1ccc(-c2noc(CCC(=O)N(C)c3cccc(C)c3)n2)cc1, which EC50 [10] is on record?
A: 6.52 µM (active)

Q: With COC(=O)C1=C(C)N(Cc2ccccc2)C(NCc2cc(OC)c(OC)c(OC)c2)=N[C@H]1c1ccccc1 as the compound, how does the IC50 [11] read?
A: 3.93 µM (active)

Q: Which IC50 [12] does the source give for Cn1c(=O)c(C(=O)Nc2ncccn2)c(O)c2ccccc21 here?
A: 13.6 µM (active)

Q: With N#CC1=C2SCC(O)(c3ccccc3)N2C(=O)CC1c1ccccc1F (configuration not stated) as the compound, how does the IC50 (Coagulation factor XII) read?
A: 2.02 µM (active)

Q: Which AC50 [13] does the source give for CN(C)c1nc(-c2ccccn2)nnc1-c1ccccc1 here?
A: 6.17 µM (active)

Q: And the CC50 [14]?
A: 8.1 µM (active)

Q: What about the AC50 [15] of the same compound?
A: 3.3 µM (active)

Q: And the IC50 (cells [16])?
A: 6.05 µM (active)

Q: What about the EC50 (HT-1080) of the same compound?
A: > 50 µM (not active)

Q: What about the EC50 (BJ [17]) of the same compound?
A: 121 µM (inconclusive)

Q: What about the EC50 (BJ [2]) of the same compound?
A: 13.3 µM (inconclusive)

Q: And the AC50 [18]?
A: 8.3 µM (active)

Q: And the EC50 (cells [19])?
A: > 350 µM (not active)

Q: And the EC50 [20]?
A: 1.23 µM (active)

Q: And the CC50 [21]?
A: 19.8 µM (active)

Q: And the EC50 (BJ [3])?
A: 16.5 µM (inconclusive)

Q: What about the IC50 (Nonstructural protein 1) of the same compound?
A: 1.09 µM (active)

Q: What about the AC50 [22] of the same compound?
A: 57.6 µM (active)

Q: And the CC50 [23]?
A: 5.38 µM (active)

Q: And the EC50 [4]?
A: 17.5 µM (active)

Q: What about the EC50 (BJ [6]) of the same compound?
A: > 150 µM (inconclusive)

Q: What about the AC50 (A-375) of the same compound?
A: 39.3 µM (active)

Q: And the EC50 (cells [24])?
A: 7.46 µM (active)

Q: Which AC50 (Trypanosoma cruzi) does the source give for CCCNC(=O)C1(C)CCCN(Cc2cccc(Oc3ccccc3)c2)C1 (configuration not stated) here?
A: 9.13 µM (active)

Q: What does the source list for CC(C)NC(=O)c1cc(-c2ccc(Cl)cc2Cl)n[nH]1?
A: IC50 [25]: > 100 µM (inactive); IC50 [26]: > 100 µM (not active)

Q: Which AC50 [13] does the source give for N=c1n(CCN2CCCC2)c2ccccc2n1CC(O)c1ccc(Cl)c(Cl)c1 (configuration not stated) here?
A: 11.8 µM (active)

Q: And the CC50 [27]?
A: 7.43 µM (active)
